Source: patent US9090549B2, “1,4-naphthoquinones derivatives and therapeutic use thereof” (CENTRE NATIONAL DE LA RECHERCHE SCIENTIFIQUE (C.N.R.S.), priority 2008, dated 2015)
Where two headings read alike, the source gives them in different places.

What was measured:
methemoglobin(Fe3+) = methemoglobin(Fe3+) (Homo sapiens, UniProt P68871+P69905); assay: Redox-cycling of methemoglobin(Fe3+) into oxyhemoglobin(Fe2+) with NADPH/GR system; assay type: biochemical; settings: 100 μM MetHb, NADPH, human GR
Chain of methemoglobin(Fe3+) (P69905 2-142 limits assumed): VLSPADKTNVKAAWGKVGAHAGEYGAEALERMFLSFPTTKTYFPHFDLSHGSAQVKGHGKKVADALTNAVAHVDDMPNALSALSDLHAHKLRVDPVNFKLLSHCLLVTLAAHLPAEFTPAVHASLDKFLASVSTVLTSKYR
Chain of methemoglobin(Fe3+) (P68871 2-147 limits assumed): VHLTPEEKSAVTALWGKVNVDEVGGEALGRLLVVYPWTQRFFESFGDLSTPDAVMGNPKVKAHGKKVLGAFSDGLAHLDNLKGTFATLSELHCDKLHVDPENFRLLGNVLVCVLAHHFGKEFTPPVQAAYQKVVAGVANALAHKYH
Excerpt: Since FPIX(Fe^2+) is an inhibitor of hematin polymerization, compounds displaying the ability to reduce FPIX(Fe^3+) into FPIX(Fe^2+) might synergistically contribute with GR inhibition to increased oxidative stress in infected-red blood cells. To evaluate the redox-cycling activity of FPIX(Fe^3+) into FPIX(Fe^2+) we set up an assay using the naphthoquinone, the glutathione reductase/NADPH-based system to regenerate the dihydronaphthoquinone continuously and methemoglobin(Fe^3+) (MetHb). The UV-spectrum of MetHb between 300 nm and 700 nm is characterized by a maximal absorbance at 405 nm and a broad band centered at around 630 nm. […] We used 20 μM methylene blue as positive control of this redox-cycling activity.
In an Eppendorf tube containing 6.4 mg MetHb dissolved in 885 μL GR buffer (47 mM potassium phosphate buffer pH 6.9, 200 mM KCl, 100 mM EDTA), 10 μL 20 mM P_TM25 dissolved in DMSO and 100 μL NADPH dissolved in GR buffer were added. The reaction was started by the addition of 5 μL human GR and then incubated at 37° C. In a 1 mL cuvette 20 μL of the reaction mixture was diluted with 980 μL GR buffer and a UV-spectra between 300 nm and 700 nm was done after 5 min, 10 min, 20 min and 30 min incubation time. The final concentrations in the reaction mixture were 100 μM MetHb, 200 μM P_TM25, 400 μM NADPH and […] hGR, final DMSO concentration 1%.
Spectra were measured after 5 min (blue), 10 min (black), 20 min (green) and 30 min (red).

[1] = target: T1, P. falciparum glutathione reductase (PfGR) (Plasmodium falciparum, UniProt Q94655); settings: menadione reference, Bauer et al 2006; cited from earlier work
T1 sequence (Q94655 2-500 limits assumed): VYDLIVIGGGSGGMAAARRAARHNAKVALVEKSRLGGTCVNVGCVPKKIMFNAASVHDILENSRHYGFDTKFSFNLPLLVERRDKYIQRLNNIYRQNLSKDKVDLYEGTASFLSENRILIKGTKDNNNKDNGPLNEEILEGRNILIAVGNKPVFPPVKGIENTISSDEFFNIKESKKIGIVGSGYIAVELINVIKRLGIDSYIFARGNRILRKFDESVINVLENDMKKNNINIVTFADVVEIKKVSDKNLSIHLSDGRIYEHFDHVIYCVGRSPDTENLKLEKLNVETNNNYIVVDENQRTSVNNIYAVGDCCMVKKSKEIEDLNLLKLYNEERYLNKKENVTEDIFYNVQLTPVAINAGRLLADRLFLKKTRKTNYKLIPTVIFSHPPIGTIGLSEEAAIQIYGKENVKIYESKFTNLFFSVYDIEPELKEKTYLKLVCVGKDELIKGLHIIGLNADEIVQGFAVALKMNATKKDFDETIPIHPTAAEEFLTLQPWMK

[2] = target: T2, human glutathione reductase (hGR) (Homo sapiens, UniProt P00390); settings: menadione reference, Bauer et al 2006; cited from earlier work
T2 sequence (P00390 44-522): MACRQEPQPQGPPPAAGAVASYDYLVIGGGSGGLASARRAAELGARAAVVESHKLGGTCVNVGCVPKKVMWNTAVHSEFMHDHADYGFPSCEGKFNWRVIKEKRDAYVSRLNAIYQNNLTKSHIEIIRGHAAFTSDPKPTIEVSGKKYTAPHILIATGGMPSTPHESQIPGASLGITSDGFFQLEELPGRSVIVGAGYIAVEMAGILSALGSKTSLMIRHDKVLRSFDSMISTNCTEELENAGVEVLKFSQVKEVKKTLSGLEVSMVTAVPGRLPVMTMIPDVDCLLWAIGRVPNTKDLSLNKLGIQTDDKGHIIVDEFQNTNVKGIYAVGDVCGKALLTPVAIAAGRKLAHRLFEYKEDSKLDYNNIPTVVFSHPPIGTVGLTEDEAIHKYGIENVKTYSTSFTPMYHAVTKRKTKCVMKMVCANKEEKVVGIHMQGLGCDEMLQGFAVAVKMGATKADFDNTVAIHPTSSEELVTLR

[3] = target: T1, P. falciparum glutathione reductase (PfGR); settings: menadione against PfGR, Biot et al 2004; cited from earlier work
[4] = target: T2, human glutathione reductase (hGR); assay: Inhibition of human glutathione reductase under steady-state conditions; assay type: biochemical; settings: pH 6.9, 25° C., 1 mM GSSG, 100 μM NADPH
[5] = target: T1, P. falciparum glutathione reductase (PfGR); assay: 1,4-Naphthoquinone reductase activity of P. falciparum glutathione reductase; assay type: biochemical; settings: with respect to menadione
Protocol: The reduction assay mixture consisted of 100 mM potassium phosphate buffer pH 6.9, 200 mM KCl, 1 mM EDTA and 100 μM NADPH in a total volume of 1 mL. 1,4-naphthoquinone reductase activity was determined by recording the initial velocities in the presence of increasing naphthoquinone concentrations (0-300 μM). […] For the determination of KM and Vmax values, the steady-state rates were fitted by using nonlinear regression analysis software (Kaleidagraph) to the Michaelis-Menten equation. From these values, the turnover number kcat and the catalytic efficiency kcat/KM were calculated.

[6] = target: T1, P. falciparum glutathione reductase (PfGR); assay: biochemical
Protocol: The standard assay was conducted at 25° C. in a 1 mL-cuvette. The assay mixture contained 100 μM NADPH and 1 mM GSSG in GR buffer (100 mM potassium phosphate buffer, 200 mM KCl, 1 mM EDTA, pH 6.9). […] Inhibitor stock solutions were prepared in 100% DMSO. 1% DMSO concentration was kept constant in the assay cuvette. The reaction was started by adding enzyme (8 mU human GR, 6.5 mU P. falciparum GR) and initial rates of NADPH oxidation were monitored at 340 nm (ε340 nm=6.22 mM^−1 cm^−1).

[7] = test system: P. falciparum chloroquine resistant strain K1; assay: K1 growth inhibition, 3H-hypoxanthine assay; assay type: cell-based, Plasmodium falciparum; settings: read-out: IC50 against Pf K1
Protocol: (§1) The IC50 values against Pf-GHA and MRC-5 were determined by using the less sensitive colorimetric NBT-based lactate dehydrogenase assay (Makler et al, Am. J. Trop. Med. Hyg. 1993, 48 (6), 739-741) based on redox-reactions.
(§2) Parasite Cultures. […] P. falciparum in vitro culture was carried out using standard protocols (Trager et al, 1976 Science, 193, 673-675) with modifications. Briefly, parasites were maintained in tissue culture flasks in human A Rh+ erythrocytes at 5% hematocrit in RPMI 1640 supplemented with 25 mM HEPES, 24 mM NaHCO3, 0.2% (w/v) glucose, 0.03% L-glutamine, 150 μM hypoxanthine, and 0.5% Albumax II® (Invitrogen) in a 5% CO2/air mixture at 37° C., and the medium was changed daily.
(§3) In Vitro Antiparasitic Bioassays. Drug susceptibility of P. falciparum was studied using a modified method (Cameron et al, 2004 J. Biol. Chem. 279, 31429-31439) of the protocol described previously (Desjardins et al, 1979). All assays included CQ diphosphate (Sigma, UK) as a standard and control wells with untreated infected and uninfected erythrocytes. IC50 values were derived by sigmoidal regression analysis (Microsoft Xlfit™).

P. berghei ANKA = assay: In vivo 4-day suppressive test in P. berghei-infected mice; set-up: species or system Plasmodium berghei; settings: for reduction of the parasitemia: Plasmodium Berghei ANKA-infected CD1 mice
Protocol: The in vivo tests in the mouse model were done according to a standard protocol (Peters et al Handbook of Animal Models of Infection; Academic Press, London, 1999; pp. 756-771). […] […] For administration, compounds were freshly prepared in 10% DMSO in sterile phosphate-buffered saline the day of use. Two hours post-infection mice received the first treatment by the intraperitoneal route. Mice were further treated on days +1-3. Blood films from tail blood were prepared on day +4, and parasitaemia was determined by microscopic examination of Giemsa-stained blood films. […] […] Mice were treated and levels of parasitemia determined as described.

Pf-GHA = Pf-GHA growth inhibition, colorimetric NBT-based lactate dehydrogenase assay; assay type: cell-based; settings: Plasmodium falciparum, 72 h, read-out: IC50 against Pf-GHA
Protocol: as §1
In Vitro Antiparasitic Bioassays. The strain is maintained in RPMI-1640 medium supplemented with 0.37 mM hypoxanthine, 25 mM HEPES, 25 mM NaHCO3, and 10% O^+ human serum together with 2-4% washed human O^+ erythrocytes. All cultures and assays are conducted under an atmosphere of 4% CO2, 3% O2 and 93% N2. Assays are performed in 96-well microtiter plates, each well containing 10 μL of the watery compound dilutions together with 190 μL of the malaria parasite inoculum (1% parasitaemia, 2% HCT). After 72 h incubation, plates are frozen and stored at −20° C. After thawing, 20 μL of each well is transferred into another plate together with 100 μL Malstat reagent and 20 μL of 1/1 mixture of PES (phenazine ethosulfate, 0.1 mg/mL) and NBT (Nitro Blue Tetrazolium Grade III, 2 mg/mL). Change in colour is measured spectrophotometrically at 655 nm. The results are expressed as % reduction in parasitaemia compared to control wells. Compounds are treated at 5 concentrations (64-16-4-1 and 0.25 μM or μg/mL).

[8] = test system: P. falciparum multidrug-resistant strain Dd2; assay: Dd2 growth inhibition, 3H-hypoxanthine assay; assay type: cell-based, Plasmodium falciparum; settings: Plasmodium falciparum, DD2, read-out: IC50 against Dd2
Protocol: The IC50 was tested by standard in vitro antiproliferation assays (Desjardins et al, 1979 Antimicrob. Agents Chemother 1979, 16, 710-718). Infected erythrocytes in ring stage (0.5% parasitemia, 2.5% hematocrit) in 96-well plates were exposed to the compounds for 48 h and then to radioactive hypoxanthine for 24 h. The amount of radioactivity in precipitable material served as an index of cell proliferation.

[9] = test system: P. falciparum chloroquine sensitive strain 3D7; assay: 3D7 growth inhibition, 3H-hypoxanthine assay; assay type: cell-based, Plasmodium falciparum; settings: read-out: IC50 against Pf 3D7
Protocol: as §1, §2, §3

P. falciparum FCM29 = assay: microbe, parasite or virus in culture; settings: Plasmodium falciparum, 48 h
Protocol: (§4) Twelve parasite strains or isolates from a wide panel of countries (Africa (3D7), Brazil (Bre), Cambodia (K2 and K14), Cameroon (FCM29), Djibouti (Vol1), the Gambia (FCR3), Indochina (W2), Niger (L1), Senegal (8425), Sierra Leone (D6), and Uganda (PA)) were maintained in culture in RPMI 1640 (Invitrogen, Paisley, United Kingdom), supplemented with 10% human serum (Abcys S.A. Paris, France) and buffered with 25 mM HEPES and 25 mM NaHCO3. Parasites were grown in A-positive human blood under controlled atmospheric conditions that consists of 10% O2, 5% CO2 and 85% N2 at 37° C. with a humidity of 95%.
(§5) FQ and synthetic compounds were resuspended and then diluted in RPMI-DMSO (99 v/1 v) to obtain final concentration ranged from 0.125 to 500 nM. […]
(§6) For in vitro isotopic microtests, 25 μL/well of antimalarial drug and 200 μL/well of the parasitized red blood cell suspension (final parasitemia, 0.5%; final hematocrit, 1.5%) were distributed into 96 well plates. Parasite growth was assessed by adding 1 μCi of tritiated hypoxanthine with a specific activity of 14.1 Ci/mmol (Perkin-Elmer, Courtaboeuf, France) to each well at time zero. […] Radioactivity incorporated by the parasites was measured with a scintillation counter (Top Count; Perkin-Elmer).
(§7) The IC50 value was determined by non-linear regression analysis of log-based dose-response curves (Riasmart™, Packard, Meriden, USA).

Pf H = assay: microbe, parasite or virus in culture; settings: Plasmodium falciparum, read-out: IC50 against Pf H
P. falciparum 3D7 = assay: microbe, parasite or virus in culture; settings: Plasmodium falciparum, 3D7, 48 h
Protocol: as §4, §5, §6, §7

For `CC1=CC(=O)c2ccccc2C1=O` [menadione], the “concentration at which the shift of maximal absorbance of MetHb from 405 to 410 nm starts being visible” value (methemoglobin(Fe3+)) is given as 50 µM, the IC50 [1] is given as 42000 nM and the IC50 [2] is given as 27500 nM. For the same compound, the Km [3] was 82.2 µM and the kcat [3] was 0.16 s⁻¹.
For `CC1=C(C(O)c2ccc(Br)cc2)C(=O)c2ccccc2C1=O` (centres unmarked) [P_TM23, 2-[(4-Bromo-phenyl)-hydroxy-methyl]-3-methyl-[1,4]naphthoquinone], the IC50 [4] was 1300 nM, the “substrate behaviour from catalytic efficiencies kcat/KM” value [5] was “very effective substrates” and the melting point was 61 to 62 °C. It also gave an IC50 [6] of 4500 nM.
In the case of `CCN(CC)CCCC(C)Nc1ccnc2cc(Cl)ccc12` (centres unmarked) [chloroquine, reference compound], the IC50 [7] is reported as ~1000 nM, the “reduction of the parasitemia” value (P. berghei ANKA; 1.0 mg/kg) is reported as 2.5% and the “reduction of the parasitemia” value (P. berghei ANKA; 3.0 mg/kg) is reported as 16.6%. For the same compound, the inhibition of parasitaemia (P. berghei ANKA; 10 mg/kg i.p.) was 98.9%, the “reduction of the parasitemia” value (P. berghei ANKA; 10.0 mg/kg) was 94.9% and the “inhibition of parasitaemia” value (P. berghei ANKA; p.o. at 10 mg/kg/day, positive control) was “complete inhibition”. It also gave an IC50 (Pf-GHA) of 50 nM, an IC50 [8] of 291 nM and an IC50 [9] of ~20 nM. For the same compound, the IC50 (P. falciparum FCM29; read-out: IC50 against strain FCM29) was 879 nM, the IC90 (P. falciparum FCM29; read-out: IC90 against strain FCM29) was 1240 nM and the IC50 (Pf H) was 217 nM. It also gave an IC50 (P. falciparum 3D7; read-out: IC50 against strain 3D7) of 21.3 nM and an IC90 (P. falciparum 3D7; read-out: IC90 against strain 3D7) of 40.4 nM.
